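Briefly, cells in 96-well plates were exposed to five compound concentrations for 48 h, and endpoints were estimated by linear interpolation. TGI is the concentration that stops growth completely.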
Columns and labels:
Experiment in all cases: NCI anticancer screen, dose series, 48 h
CAKI-1 renal = tested on: CAKI-1 renal
CCRF-CEM leukemia = tested on: CCRF-CEM leukemia
HCC-2998 colon = tested on: HCC-2998 colon
HL-60(TB) leukemia = tested on: HL-60(TB) leukemia
HOP-62 NSCLC = tested on: HOP-62 NSCLC
HS 578T breast = tested on: HS 578T breast
HT29 colon = tested on: HT29 colon
KM12 colon = tested on: KM12 colon
NCI-H23 lung = tested on: NCI-H23 lung
NCI-H522 lung = tested on: NCI-H522 lung

CC(C)CCn1nc(N)c2nc3ccccc3nc21
TGI (CAKI-1 renal): > 100 µM
TGI (CCRF-CEM leukemia): > 100 µM
TGI (HCC-2998 colon): > 100 µM
TGI (HL-60(TB) leukemia): > 100 µM
TGI (HOP-62 NSCLC): > 100 µM
TGI (HS 578T breast): > 100 µM
TGI (HT29 colon): > 100 µM
TGI (KM12 colon): > 100 µM
TGI (NCI-H23 lung): > 100 µM
TGI (NCI-H522 lung): > 100 µM

CC1C(c2ccc3c(c2)OCO3)c2cc3c(cc2OC1N1CCOCC1)OCO3 (stereo not given)
TGI (CAKI-1 renal): > 82.7 µM
TGI (CCRF-CEM leukemia): 73.3 µM
TGI (HCC-2998 colon): 65.6 µM
TGI (HL-60(TB) leukemia): > 62.2 µM
TGI (HOP-62 NSCLC): 78.6 µM
TGI (HS 578T breast): 55.2 µM
TGI (HT29 colon): > 85 µM
TGI (KM12 colon): 94.2 µM
TGI (NCI-H23 lung): > 100 µM
TGI (NCI-H522 lung): 31.1 µM

CCN(CC)CCNc1ccc2ncn3c4cc(OC)c(OC)c(=O)c4c(O)c1c23
TGI (CAKI-1 renal): 28.9 µM
TGI (CCRF-CEM leukemia): 53.1 µM
TGI (HCC-2998 colon): 23.2 µM
TGI (HL-60(TB) leukemia): 26.3 µM
TGI (HOP-62 NSCLC): 28.2 µM
TGI (HS 578T breast): 29.1 µM
TGI (HT29 colon): 19.8 µM
TGI (KM12 colon): 23.2 µM
TGI (NCI-H23 lung): 26.3 µM
TGI (NCI-H522 lung): 25.9 µM

NS(=O)(=O)c1ccc(NC(NC(=O)C(C(F)(F)F)C(F)(F)F)(C(F)(F)F)C(F)(F)F)cc1
TGI (CAKI-1 renal): > 100 µM
TGI (CCRF-CEM leukemia): > 100 µM
TGI (HCC-2998 colon): > 100 µM
TGI (HL-60(TB) leukemia): > 100 µM
TGI (HOP-62 NSCLC): > 100 µM
TGI (HS 578T breast): > 100 µM
TGI (HT29 colon): > 100 µM
TGI (KM12 colon): > 100 µM
TGI (NCI-H23 lung): > 100 µM
TGI (NCI-H522 lung): > 100 µM

CCc1nc2cc3cccnc3c(Cl)c2[nH]c1=O
TGI (CAKI-1 renal): > 100 µM
TGI (CCRF-CEM leukemia): > 100 µM
TGI (HCC-2998 colon): > 100 µM
TGI (HL-60(TB) leukemia): > 100 µM
TGI (HOP-62 NSCLC): > 100 µM
TGI (HS 578T breast): > 100 µM
TGI (HT29 colon): > 100 µM
TGI (KM12 colon): > 100 µM
TGI (NCI-H23 lung): > 100 µM
TGI (NCI-H522 lung): > 100 µM

COc1ccc2c(c1)CCN=C2c1ccccc1CCCCl
TGI (CAKI-1 renal): 70.2 µM
TGI (CCRF-CEM leukemia): > 100 µM
TGI (HCC-2998 colon): 24.9 µM
TGI (HL-60(TB) leukemia): > 100 µM
TGI (HOP-62 NSCLC): > 100 µM
TGI (HS 578T breast): 96.5 µM
TGI (HT29 colon): 58.2 µM
TGI (KM12 colon): > 100 µM
TGI (NCI-H23 lung): 39.8 µM
TGI (NCI-H522 lung): 52.5 µM

CC(C)(C)C(=O)C(Cc1ccccc1)C(=O)C(C)(C)C
TGI (CAKI-1 renal): > 100 µM
TGI (CCRF-CEM leukemia): > 100 µM
TGI (HCC-2998 colon): > 100 µM
TGI (HL-60(TB) leukemia): > 100 µM
TGI (HOP-62 NSCLC): > 100 µM
TGI (HS 578T breast): > 100 µM
TGI (HT29 colon): > 100 µM
TGI (KM12 colon): > 100 µM
TGI (NCI-H23 lung): > 100 µM
TGI (NCI-H522 lung): > 100 µM

Clc1ccc(Cl)c(SCCCN2CCNCC2)c1
TGI (CAKI-1 renal): 41.8 µM
TGI (CCRF-CEM leukemia): 50.5 µM
TGI (HCC-2998 colon): 12.8 µM
TGI (HL-60(TB) leukemia): 40.3 µM
TGI (HOP-62 NSCLC): 41.7 µM
TGI (HS 578T breast): 35.9 µM
TGI (HT29 colon): 37.7 µM
TGI (KM12 colon): 86.1 µM
TGI (NCI-H23 lung): 39.8 µM
TGI (NCI-H522 lung): 34 µM

O=C1CCc2ccc3c(c21)CC1(Cc2ccccc2C1)C3
TGI (CAKI-1 renal): > 100 µM
TGI (CCRF-CEM leukemia): > 100 µM
TGI (HCC-2998 colon): 49.3 µM
TGI (HL-60(TB) leukemia): 7.03 µM
TGI (HOP-62 NSCLC): > 100 µM
TGI (HS 578T breast): > 100 µM
TGI (HT29 colon): 22 µM
TGI (KM12 colon): 46 µM
TGI (NCI-H23 lung): > 100 µM
TGI (NCI-H522 lung): 92.4 µM

Cc1cc2c(nn1)-c1ccccc1C2=O
TGI (CAKI-1 renal): > 10 µM
TGI (CCRF-CEM leukemia): > 10 µM
TGI (HCC-2998 colon): > 10 µM
TGI (HL-60(TB) leukemia): > 10 µM
TGI (HOP-62 NSCLC): > 10 µM
TGI (HS 578T breast): > 10 µM
TGI (HT29 colon): > 10 µM
TGI (KM12 colon): > 10 µM
TGI (NCI-H23 lung): > 10 µM
TGI (NCI-H522 lung): > 10 µM

Reference: PubChem BioAssay (NCI)
